Measurements published in the kinase profiling compilation of Christmann-Franck et al. (2016).
Several values for one entry are separate records, joined by “and”; a condition that tells them apart may be missing. Equal values may be shown once.

Experiments:
Test in all cases: radiometric filter-binding kinase assay, Kinase HotSpot
Conditions in all cases: compound 0.5 µM; ATP 10 µM
ULK1 (human) = ULK1 (human) (UniProt O75385)
PHKG2 (human) = PHKG2 (human) (UniProt P15735)
FER (human) = FER (human) (UniProt P16591)
TGFBR1 (human) = TGFBR1 (human) (UniProt P36897)
STK39 (human) = STK39 (human) (UniProt Q9UEW8)
CSF1R (human) = CSF1R (human) (UniProt P07333)
TEK (human) = TEK (human) (UniProt Q02763)
Chain of TEK (human) (Q02763 whole entry, looked up): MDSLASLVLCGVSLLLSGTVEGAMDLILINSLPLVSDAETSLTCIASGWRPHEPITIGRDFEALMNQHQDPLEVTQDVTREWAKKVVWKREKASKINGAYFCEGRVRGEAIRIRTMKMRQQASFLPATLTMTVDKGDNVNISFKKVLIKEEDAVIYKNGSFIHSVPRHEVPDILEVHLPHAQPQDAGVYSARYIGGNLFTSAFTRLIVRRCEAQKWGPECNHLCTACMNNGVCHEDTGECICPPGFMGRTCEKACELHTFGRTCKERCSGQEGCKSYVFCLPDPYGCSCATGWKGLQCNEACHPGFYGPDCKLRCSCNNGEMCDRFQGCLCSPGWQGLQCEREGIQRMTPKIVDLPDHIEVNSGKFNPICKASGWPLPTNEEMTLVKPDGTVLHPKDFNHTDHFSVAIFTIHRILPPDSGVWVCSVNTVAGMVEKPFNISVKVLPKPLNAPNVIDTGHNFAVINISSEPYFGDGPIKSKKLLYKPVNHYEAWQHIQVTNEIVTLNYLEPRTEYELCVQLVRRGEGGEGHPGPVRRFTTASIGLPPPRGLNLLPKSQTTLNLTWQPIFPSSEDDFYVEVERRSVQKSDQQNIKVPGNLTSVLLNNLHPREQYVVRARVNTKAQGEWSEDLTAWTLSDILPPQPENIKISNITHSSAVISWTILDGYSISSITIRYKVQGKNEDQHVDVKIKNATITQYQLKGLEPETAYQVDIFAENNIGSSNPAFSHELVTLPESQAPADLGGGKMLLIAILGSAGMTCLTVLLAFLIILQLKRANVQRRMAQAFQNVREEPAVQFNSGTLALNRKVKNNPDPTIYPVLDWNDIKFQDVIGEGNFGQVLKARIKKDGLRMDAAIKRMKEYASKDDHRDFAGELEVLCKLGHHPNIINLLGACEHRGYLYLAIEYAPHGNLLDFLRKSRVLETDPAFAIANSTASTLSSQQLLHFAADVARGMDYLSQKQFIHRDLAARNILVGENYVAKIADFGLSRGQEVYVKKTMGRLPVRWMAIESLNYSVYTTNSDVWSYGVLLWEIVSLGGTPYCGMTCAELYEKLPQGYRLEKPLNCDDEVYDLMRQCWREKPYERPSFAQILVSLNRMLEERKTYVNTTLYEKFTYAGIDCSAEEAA

EPHA7 (human) = EPHA7 (human) (UniProt Q15375)
RPS6KA2 KD1 KD2 (human) = RPS6KA2 KD1 KD2 (human) (UniProt Q15349)
LYN (human) = LYN (human) (UniProt P07948)
PRKG2 (human) = PRKG2 (human) (UniProt Q13237)
MARK2 (human) = MARK2 (human) (UniProt Q7KZI7)
Chain of MARK2 (human) (Q7KZI7 whole entry, looked up): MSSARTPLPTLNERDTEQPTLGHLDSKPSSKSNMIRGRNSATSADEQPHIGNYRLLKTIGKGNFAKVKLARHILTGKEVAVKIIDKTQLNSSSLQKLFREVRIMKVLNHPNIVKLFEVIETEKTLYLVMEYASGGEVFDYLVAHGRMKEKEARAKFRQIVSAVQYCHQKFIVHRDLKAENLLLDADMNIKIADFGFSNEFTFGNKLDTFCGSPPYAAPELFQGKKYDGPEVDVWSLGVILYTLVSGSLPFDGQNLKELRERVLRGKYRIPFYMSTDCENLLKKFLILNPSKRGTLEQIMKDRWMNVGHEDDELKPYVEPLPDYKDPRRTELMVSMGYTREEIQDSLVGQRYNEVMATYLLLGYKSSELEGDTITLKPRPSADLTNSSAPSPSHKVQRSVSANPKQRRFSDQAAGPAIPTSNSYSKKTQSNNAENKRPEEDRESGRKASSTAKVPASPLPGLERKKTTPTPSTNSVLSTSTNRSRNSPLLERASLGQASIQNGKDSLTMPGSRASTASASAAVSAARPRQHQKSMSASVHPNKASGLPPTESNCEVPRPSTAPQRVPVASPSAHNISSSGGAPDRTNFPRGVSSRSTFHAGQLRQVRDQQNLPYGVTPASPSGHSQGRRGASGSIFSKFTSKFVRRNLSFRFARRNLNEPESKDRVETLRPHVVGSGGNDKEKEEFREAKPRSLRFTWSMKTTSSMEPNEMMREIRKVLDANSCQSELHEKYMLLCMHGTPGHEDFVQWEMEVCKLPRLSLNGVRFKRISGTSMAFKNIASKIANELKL

CLK4 (human) = CLK4 (human) (UniProt Q9HAZ1)
TAOK1 (human) = TAOK1 (human) (UniProt Q7L7X3)
CSNK2A2 (human) = CSNK2A2 (human) (UniProt P19784)
CDK1 CCNB1 (human) = CDK1 CCNB1 (human) (UniProt P06493+P14635)
MUSK (human) = MUSK (human) (UniProt O15146)
PAK3 (human) = PAK3 (human) (UniProt O75914)
CDK3 CCNE1 (human) = CDK3 CCNE1 (human) (UniProt Q00526+P24864)
MAPK1 (human) = MAPK1 (human) (UniProt P28482)
PLK2 (human) = PLK2 (human) (UniProt Q9NYY3)
SRMS (human) = SRMS (human) (UniProt Q9H3Y6)
DYRK3 (human) = DYRK3 (human) (UniProt O43781)
TYRO3 (human) = TYRO3 (human) (UniProt Q06418)
ACVRL1 (human) = ACVRL1 (human) (UniProt P37023)
[1] = system: MAP2K6 (human), P52564 [S207E/T211E]
CHEK2 (human) = CHEK2 (human) (UniProt O96017)
EPHA8 (human) = EPHA8 (human) (UniProt P29322)
PBK (human) = PBK (human) (UniProt Q96KB5)
EPHB2 (human) = EPHB2 (human) (UniProt P29323)
Chain of EPHB2 (human) (P29323 whole entry, looked up): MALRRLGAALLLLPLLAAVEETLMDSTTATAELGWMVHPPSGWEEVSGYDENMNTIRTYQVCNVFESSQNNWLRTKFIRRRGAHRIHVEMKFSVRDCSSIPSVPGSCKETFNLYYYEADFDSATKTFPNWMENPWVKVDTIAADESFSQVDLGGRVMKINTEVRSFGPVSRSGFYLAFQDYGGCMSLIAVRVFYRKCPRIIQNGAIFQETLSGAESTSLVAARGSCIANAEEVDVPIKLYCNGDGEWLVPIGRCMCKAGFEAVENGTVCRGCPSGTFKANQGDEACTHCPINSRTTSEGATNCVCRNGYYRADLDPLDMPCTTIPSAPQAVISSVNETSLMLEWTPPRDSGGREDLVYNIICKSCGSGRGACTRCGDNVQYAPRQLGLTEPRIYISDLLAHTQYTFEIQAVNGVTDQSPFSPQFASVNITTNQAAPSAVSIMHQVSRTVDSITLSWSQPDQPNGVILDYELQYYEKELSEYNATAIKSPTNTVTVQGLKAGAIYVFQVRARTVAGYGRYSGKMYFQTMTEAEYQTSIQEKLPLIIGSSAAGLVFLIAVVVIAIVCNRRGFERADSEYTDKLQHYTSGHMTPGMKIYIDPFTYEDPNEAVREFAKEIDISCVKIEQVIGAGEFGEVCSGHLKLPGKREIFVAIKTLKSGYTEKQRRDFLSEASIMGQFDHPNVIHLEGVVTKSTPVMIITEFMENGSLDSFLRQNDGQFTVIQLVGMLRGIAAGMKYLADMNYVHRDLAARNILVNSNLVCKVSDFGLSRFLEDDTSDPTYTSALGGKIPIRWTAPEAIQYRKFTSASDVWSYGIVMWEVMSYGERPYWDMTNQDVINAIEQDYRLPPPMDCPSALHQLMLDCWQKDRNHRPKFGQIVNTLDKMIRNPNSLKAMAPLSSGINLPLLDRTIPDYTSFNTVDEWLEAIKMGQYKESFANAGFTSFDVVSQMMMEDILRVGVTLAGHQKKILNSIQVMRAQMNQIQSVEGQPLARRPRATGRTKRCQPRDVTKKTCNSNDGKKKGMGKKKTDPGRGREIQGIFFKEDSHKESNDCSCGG

STK3 (human) = STK3 (human) (UniProt Q13188)
CSNK1G2 (human) = CSNK1G2 (human) (UniProt P78368)
PAK7 (human) = PAK7 (human) (UniProt Q9P286)
Chain of PAK7 (human) (Q9P286 whole entry, looked up): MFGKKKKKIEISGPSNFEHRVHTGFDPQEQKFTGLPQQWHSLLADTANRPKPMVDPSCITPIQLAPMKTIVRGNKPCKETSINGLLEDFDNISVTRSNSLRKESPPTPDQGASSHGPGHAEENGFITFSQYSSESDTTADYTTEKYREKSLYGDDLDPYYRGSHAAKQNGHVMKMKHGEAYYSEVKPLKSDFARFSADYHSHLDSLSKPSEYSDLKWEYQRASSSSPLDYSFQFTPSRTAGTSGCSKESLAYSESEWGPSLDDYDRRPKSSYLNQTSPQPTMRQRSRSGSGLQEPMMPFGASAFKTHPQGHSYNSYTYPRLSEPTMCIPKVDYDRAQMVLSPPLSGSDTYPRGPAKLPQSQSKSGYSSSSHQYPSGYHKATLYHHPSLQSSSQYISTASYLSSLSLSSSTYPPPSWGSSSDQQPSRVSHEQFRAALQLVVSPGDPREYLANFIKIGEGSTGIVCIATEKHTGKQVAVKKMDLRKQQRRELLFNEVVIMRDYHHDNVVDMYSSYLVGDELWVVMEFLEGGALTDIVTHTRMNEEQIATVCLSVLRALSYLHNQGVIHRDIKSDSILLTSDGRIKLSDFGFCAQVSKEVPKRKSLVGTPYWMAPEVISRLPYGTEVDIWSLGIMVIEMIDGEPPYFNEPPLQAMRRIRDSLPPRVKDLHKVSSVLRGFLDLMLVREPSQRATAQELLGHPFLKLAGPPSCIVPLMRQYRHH

CAMK4 (human) = CAMK4 (human) (UniProt Q16566)
IRAK1 (human) = IRAK1 (human) (UniProt P51617)
Chain of IRAK1 (human) (P51617 whole entry, looked up): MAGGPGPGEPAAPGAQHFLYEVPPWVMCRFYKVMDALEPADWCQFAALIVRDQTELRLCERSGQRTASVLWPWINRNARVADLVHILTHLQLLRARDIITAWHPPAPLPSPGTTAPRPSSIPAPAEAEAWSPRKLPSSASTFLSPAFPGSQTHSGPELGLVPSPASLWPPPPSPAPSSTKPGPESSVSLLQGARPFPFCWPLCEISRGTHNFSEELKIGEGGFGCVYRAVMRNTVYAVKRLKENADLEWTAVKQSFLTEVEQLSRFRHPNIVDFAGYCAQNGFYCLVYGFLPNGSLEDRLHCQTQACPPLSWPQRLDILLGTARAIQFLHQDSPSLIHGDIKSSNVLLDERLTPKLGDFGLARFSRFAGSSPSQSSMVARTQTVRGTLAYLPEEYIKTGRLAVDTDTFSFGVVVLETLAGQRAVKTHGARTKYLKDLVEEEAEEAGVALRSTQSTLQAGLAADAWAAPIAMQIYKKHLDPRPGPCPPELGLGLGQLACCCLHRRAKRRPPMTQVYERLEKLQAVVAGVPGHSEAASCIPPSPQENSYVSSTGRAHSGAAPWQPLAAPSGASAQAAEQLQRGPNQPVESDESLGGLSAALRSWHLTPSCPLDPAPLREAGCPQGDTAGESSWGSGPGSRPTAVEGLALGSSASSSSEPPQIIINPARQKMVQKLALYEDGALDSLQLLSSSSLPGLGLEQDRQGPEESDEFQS

PRKX (human) = PRKX (human) (UniProt P51817)
MAP3K5 (human) = MAP3K5 (human) (UniProt Q99683)
AKT3 (human) = AKT3 (human) (UniProt Q9Y243)
ROS1 (human) = ROS1 (human) (UniProt P08922)
CDK2 CCNA2 (human) = CDK2 CCNA2 (human) (UniProt P24941+P20248)
Chain of CDK2 CCNA2 (human) (P20248 whole entry, looked up, other chains not shown): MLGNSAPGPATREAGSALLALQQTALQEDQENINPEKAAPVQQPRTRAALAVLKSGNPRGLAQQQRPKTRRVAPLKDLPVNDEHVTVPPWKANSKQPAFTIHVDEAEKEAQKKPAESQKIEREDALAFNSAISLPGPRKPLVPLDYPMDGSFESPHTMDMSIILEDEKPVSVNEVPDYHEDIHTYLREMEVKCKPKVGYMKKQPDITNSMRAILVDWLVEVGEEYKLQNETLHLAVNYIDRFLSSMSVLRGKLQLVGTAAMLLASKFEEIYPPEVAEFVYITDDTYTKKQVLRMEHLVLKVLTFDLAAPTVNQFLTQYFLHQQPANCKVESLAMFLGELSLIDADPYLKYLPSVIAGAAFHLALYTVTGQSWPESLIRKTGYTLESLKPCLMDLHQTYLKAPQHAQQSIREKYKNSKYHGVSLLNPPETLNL

CDK4 CCND1 (human) = CDK4 CCND1 (human) (UniProt P24385+P11802)
NUAK1 (human) = NUAK1 (human) (UniProt O60285)

With `COc1ccc(Cl)cc1NC(=O)Nc1cc(C)nc2ccccc12` the residual activity (ULK1 (human)) was 91.2%, the residual activity (PHKG2 (human)) was 98.6% and the residual activity (FER (human)) was 92.4%. The residual activity (TGFBR1 (human)) was 99.1%, the residual activity (STK39 (human)) was 98.5% and the residual activity (CSF1R (human)) was 94.8%. For the same compound, the residual activity (TEK (human)) was 96.8%, the residual activity (EPHA7 (human)) was 99.7% and the residual activity (RPS6KA2 KD1 KD2 (human)) was 99.8%. The residual activity (LYN (human)) was 111% and 99.2%, the residual activity (PRKG2 (human)) was 105% and the residual activity (MARK2 (human)) was 99.5%. For the same compound, the residual activity (CLK4 (human)) was 108%, the residual activity (TAOK1 (human)) was 103% and the residual activity (CSNK2A2 (human)) was 96%. The residual activity (CDK1 CCNB1 (human)) was 81.1%, the residual activity (MUSK (human)) was 93.3% and the residual activity (PAK3 (human)) was 98.9%. It also gave a residual activity (CDK3 CCNE1 (human)) of 93.6%, a residual activity (MAPK1 (human)) of 90.4% and a residual activity (PLK2 (human)) of 102%. For the same compound, the residual activity (SRMS (human)) was 97.6%, the residual activity (DYRK3 (human)) was 106% and the residual activity (TYRO3 (human)) was 98.9%. It also gave a residual activity (ACVRL1 (human)) of 98.6%, a residual activity [1] of 89.9% and a residual activity (CHEK2 (human)) of 101%. For the same compound, the residual activity (EPHA8 (human)) was 97.8%, the residual activity (PBK (human)) was 98.5% and the residual activity (EPHB2 (human)) was 93.2%. The residual activity (STK3 (human)) was 98.9%, the residual activity (CSNK1G2 (human)) was 98.5% and the residual activity (PAK7 (human)) was 85.1%. The residual activity (CAMK4 (human)) was 93.6%, the residual activity (IRAK1 (human)) was 91.2% and the residual activity (PRKX (human)) was 98%. The residual activity (MAP3K5 (human)) was 101%, the residual activity (AKT3 (human)) was 103% and the residual activity (ROS1 (human)) was 92.5%. It also gave a residual activity (CDK2 CCNA2 (human)) of 98.6% and a residual activity (CDK4 CCND1 (human)) of 98.8%.
`O=C1Nc2ccc(Br)cc2/C1=C\c1cc2c([nH]1)CCCC2` gave a residual activity (ULK1 (human)) of 69.4%, a residual activity (PHKG2 (human)) of 90.5% and a residual activity (FER (human)) of 74.7%. For the same compound, the residual activity (TGFBR1 (human)) was 100%, the residual activity (STK39 (human)) was 86% and the residual activity (CSF1R (human)) was 49.7%. The residual activity (TEK (human)) was 98.2%, the residual activity (EPHA7 (human)) was 85.3% and the residual activity (RPS6KA2 KD1 KD2 (human)) was 72%. For the same compound, the residual activity (LYN (human)) was 70.8% and 86.8%, the residual activity (PRKG2 (human)) was 92.4% and the residual activity (MARK2 (human)) was 77%. For the same compound, the residual activity (CLK4 (human)) was 84.5%, the residual activity (TAOK1 (human)) was 92.3% and the residual activity (CDK1 CCNB1 (human)) was 98.5%. For the same compound, the residual activity (MUSK (human)) was 88.6%, the residual activity (PAK3 (human)) was 96.4% and the residual activity (CDK3 CCNE1 (human)) was 93.2%. The residual activity (NUAK1 (human)) was 27.7%, the residual activity (MAPK1 (human)) was 103% and the residual activity (PLK2 (human)) was 102%. It also gave a residual activity (SRMS (human)) of 104%, a residual activity (DYRK3 (human)) of 94% and a residual activity (TYRO3 (human)) of 104%. It also gave a residual activity (ACVRL1 (human)) of 103%, a residual activity [1] of 110% and a residual activity (CHEK2 (human)) of 68.2%. For the same compound, the residual activity (EPHA8 (human)) was 94.5%, the residual activity (PBK (human)) was 87.8% and the residual activity (EPHB2 (human)) was 85.4%. For the same compound, the residual activity (STK3 (human)) was 60.7%, the residual activity (CSNK1G2 (human)) was 96.8% and the residual activity (PAK7 (human)) was 85.4%. For the same compound, the residual activity (CAMK4 (human)) was 97.5%, the residual activity (IRAK1 (human)) was 97% and the residual activity (PRKX (human)) was 97.2%. For the same compound, the residual activity (MAP3K5 (human)) was 101%, the residual activity (AKT3 (human)) was 96.6% and the residual activity (ROS1 (human)) was 98.6%. The residual activity (CDK2 CCNA2 (human)) was 90.8% and the residual activity (CDK4 CCND1 (human)) was 97.9%.
Work on `O=C1C(Cl)=C(N2C(=O)CCC2=O)C(=O)c2ccccc21` yielded a residual activity (ULK1 (human)) of 107%, a residual activity (PHKG2 (human)) of 100% and a residual activity (FER (human)) of 103%. It also gave a residual activity (TGFBR1 (human)) of 101%, a residual activity (STK39 (human)) of 97.3% and a residual activity (CSF1R (human)) of 102%. The residual activity (TEK (human)) was 96.7%, the residual activity (EPHA7 (human)) was 106% and the residual activity (RPS6KA2 KD1 KD2 (human)) was 104%. The residual activity (LYN (human)) was 93.5% and 97%, the residual activity (PRKG2 (human)) was 114% and the residual activity (MARK2 (human)) was 79.4%. The residual activity (CLK4 (human)) was 94.1%, the residual activity (TAOK1 (human)) was 83.1% and the residual activity (CSNK2A2 (human)) was 100%. For the same compound, the residual activity (CDK1 CCNB1 (human)) was 118%, the residual activity (MUSK (human)) was 104% and the residual activity (PAK3 (human)) was 104%. For the same compound, the residual activity (CDK3 CCNE1 (human)) was 102%, the residual activity (NUAK1 (human)) was 105% and the residual activity (MAPK1 (human)) was 73.6%. For the same compound, the residual activity (PLK2 (human)) was 96%, the residual activity (SRMS (human)) was 108% and the residual activity (DYRK3 (human)) was 95.4%. For the same compound, the residual activity (TYRO3 (human)) was 114%, the residual activity (ACVRL1 (human)) was 105% and the residual activity [1] was 107%. For the same compound, the residual activity (CHEK2 (human)) was 95.7%, the residual activity (EPHA8 (human)) was 107% and the residual activity (PBK (human)) was 106%. For the same compound, the residual activity (EPHB2 (human)) was 98.7%, the residual activity (STK3 (human)) was 98.2% and the residual activity (CSNK1G2 (human)) was 99.3%. For the same compound, the residual activity (PAK7 (human)) was 108%, the residual activity (IRAK1 (human)) was 101% and the residual activity (PRKX (human)) was 103%. It also gave a residual activity (MAP3K5 (human)) of 99.1%, a residual activity (AKT3 (human)) of 105% and a residual activity (ROS1 (human)) of 95.8%. The residual activity (CDK2 CCNA2 (human)) was 109% and the residual activity (CDK4 CCND1 (human)) was 103%.
